Source: the CheMixHub viscosity set

Experiment: xn = mol fraction of the nth substance listed

C1CCCCC1 + c1ccccc1
Details | viscosity [mPa·s]
293.15 K, 101 kPa, x2 = 0.094 | 0.893
293.15 K, 101 kPa, x2 = 0.251 | 0.762
293.15 K, 101 kPa, x2 = 0.418 | 0.684
293.15 K, 101 kPa, x2 = 0.582 | 0.649
293.15 K, 101 kPa, x2 = 0.736 | 0.628
293.15 K, 101 kPa, x2 = 0.891 | 0.636
293.15 K, 101.32 kPa, x1 = 0.069 | 0.634
293.15 K, 101.33 kPa, x1 = 0.4 | 0.6789
293.65 K, 101.33 kPa, x1 = 0.1 | 0.6528
293.85 K, 101.33 kPa, x1 = 0.3 | 0.6581
294.35 K, 101.33 kPa, x1 = 0.7 | 0.7579
294.55 K, 101.33 kPa, x1 = 0.85 | 0.8416
294.85 K, 101.33 kPa, x1 = 0.6 | 0.7104
296.05 K, 101.33 kPa, x1 = 0.2 | 0.631
298 K, 101 kPa, x1 = 0.077 | 0.654
298 K, 101 kPa, x1 = 0.1226 | 0.654
298 K, 101 kPa, x1 = 0.1659 | 0.657
298 K, 101 kPa, x1 = 0.1692 | 0.66
298 K, 101 kPa, x1 = 0.2368 | 0.665
298 K, 101 kPa, x1 = 0.2613 | 0.669
298 K, 101 kPa, x1 = 0.2942 | 0.678
298 K, 101 kPa, x1 = 0.2951 | 0.674
298 K, 101 kPa, x1 = 0.6686 | 0.787
298.1 K, 101 kPa, x1 = 0.2 | 0.581
298.1 K, 101 kPa, x1 = 0.4 | 0.588
298.1 K, 101 kPa, x1 = 0.5 | 0.606
298.1 K, 101 kPa, x1 = 0.6 | 0.629
298.1 K, 101 kPa, x1 = 0.8 | 0.702
298.15 K, 100 kPa, x2 = 0.2504 | 0.7321
298.15 K, 100 kPa, x2 = 0.4997 | 0.6299
298.15 K, 100 kPa, x2 = 0.7497 | 0.575
298.15 K, 101 kPa, x1 = 0.0407 | 0.5938
298.15 K, 101 kPa, x1 = 0.0977 | 0.5871
298.15 K, 101 kPa, x1 = 0.1489 | 0.5839
298.15 K, 101 kPa, x1 = 0.1991 | 0.581
298.15 K, 101 kPa, x1 = 0.2609 | 0.5691
298.15 K, 101 kPa, x1 = 0.3011 | 0.5852
298.15 K, 101 kPa, x1 = 0.3095 | 0.574
298.15 K, 101 kPa, x1 = 0.3586 | 0.5843
298.15 K, 101 kPa, x1 = 0.3991 | 0.5953
298.15 K, 101 kPa, x1 = 0.4089 | 0.5884
298.15 K, 101 kPa, x1 = 0.4513 | 0.6073
298.15 K, 101 kPa, x1 = 0.4887 | 0.5861
298.15 K, 101 kPa, x1 = 0.4987 | 0.6127
298.15 K, 101 kPa, x1 = 0.5798 | 0.6263
298.15 K, 101 kPa, x1 = 0.5965 | 0.6256
298.15 K, 101 kPa, x1 = 0.6017 | 0.6403
298.15 K, 101 kPa, x1 = 0.6481 | 0.6489
298.15 K, 101 kPa, x1 = 0.6986 | 0.6783
298.15 K, 101 kPa, x1 = 0.7128 | 0.6954
298.15 K, 101 kPa, x1 = 0.8006 | 0.7301
298.15 K, 101 kPa, x1 = 0.8959 | 0.7929
298.15 K, 101 kPa, x1 = 0.9313 | 0.8219
298.15 K, 101 kPa, x1 = 0.9638 | 0.8484
298.15 K, 101 kPa, x2 = 0.0136 | 0.8732
298.15 K, 101 kPa, x2 = 0.1 | 0.7978
298.15 K, 101 kPa, x2 = 0.1043 | 0.8022
298.15 K, 101 kPa, x2 = 0.2 | 0.734
298.15 K, 101 kPa, x2 = 0.2011 | 0.7423
298.15 K, 101 kPa, x2 = 0.203 | 0.7292
298.15 K, 101 kPa, x2 = 0.2438 | 0.7115
298.15 K, 101 kPa, x2 = 0.3015 | 0.6869
298.15 K, 101 kPa, x2 = 0.31 | 0.6772
298.15 K, 101 kPa, x2 = 0.4 | 0.641
298.15 K, 101 kPa, x2 = 0.4038 | 0.6514
298.15 K, 101 kPa, x2 = 0.441 | 0.6283
298.15 K, 101 kPa, x2 = 0.5005 | 0.6313
298.15 K, 101 kPa, x2 = 0.549 | 0.6011
298.15 K, 101 kPa, x2 = 0.6 | 0.593
298.15 K, 101 kPa, x2 = 0.6032 | 0.6107
298.15 K, 101 kPa, x2 = 0.611 | 0.595
298.15 K, 101 kPa, x2 = 0.7006 | 0.5985
298.15 K, 101 kPa, x2 = 0.733 | 0.5877
298.15 K, 101 kPa, x2 = 0.7848 | 0.574
298.15 K, 101 kPa, x2 = 0.7996 | 0.6
298.15 K, 101 kPa, x2 = 0.8 | 0.587
298.15 K, 101 kPa, x2 = 0.883 | 0.5923
298.15 K, 101 kPa, x2 = 0.9011 | 0.609
298.15 K, 101.33 kPa, x1 = 0.0984 | 0.582
298.15 K, 101.33 kPa, x1 = 0.1986 | 0.576
298.15 K, 101.33 kPa, x1 = 0.3009 | 0.579
298.15 K, 101.33 kPa, x1 = 0.4008 | 0.589
298.15 K, 101.33 kPa, x1 = 0.4989 | 0.609
298.15 K, 101.33 kPa, x1 = 0.552 | 0.623
298.15 K, 101.33 kPa, x1 = 0.6007 | 0.639
298.15 K, 101.33 kPa, x1 = 0.6478 | 0.653
298.15 K, 101.33 kPa, x1 = 0.7475 | 0.699
298.15 K, 101.33 kPa, x1 = 0.8011 | 0.733
298.15 K, 101.33 kPa, x1 = 0.9022 | 0.803
298.15 K, 101.33 kPa, x2 = 0.1282 | 0.7622
298.15 K, 101.33 kPa, x2 = 0.15 | 0.7725
298.15 K, 101.33 kPa, x2 = 0.2174 | 0.7122
298.15 K, 101.33 kPa, x2 = 0.2438 | 0.7115
298.15 K, 101.33 kPa, x2 = 0.3364 | 0.6599
298.15 K, 101.33 kPa, x2 = 0.35 | 0.6571
298.15 K, 101.33 kPa, x2 = 0.4874 | 0.6124
298.15 K, 101.33 kPa, x2 = 0.5 | 0.612
298.15 K, 101.33 kPa, x2 = 0.549 | 0.6011
298.15 K, 101.33 kPa, x2 = 0.647 | 0.5879
298.15 K, 101.33 kPa, x2 = 0.65 | 0.5853
298.15 K, 101.33 kPa, x2 = 0.7814 | 0.583
298.15 K, 101.33 kPa, x2 = 0.7848 | 0.574
298.15 K, 101.33 kPa, x2 = 0.9 | 0.5761
298.15 K, 101.33 kPa, x2 = 0.9033 | 0.5926
303.15 K, 101 kPa, x1 = 0.0989 | 0.5467
303.15 K, 101 kPa, x1 = 0.1983 | 0.5433
303.15 K, 101 kPa, x1 = 0.3019 | 0.5485
303.15 K, 101 kPa, x1 = 0.3998 | 0.5602
303.15 K, 101 kPa, x1 = 0.5035 | 0.5792
303.15 K, 101 kPa, x1 = 0.6015 | 0.6041
303.15 K, 101 kPa, x1 = 0.7002 | 0.6378
303.15 K, 101 kPa, x1 = 0.7987 | 0.6822
303.15 K, 101 kPa, x1 = 0.8977 | 0.7447
303.15 K, 101 kPa, x2 = 0.094 | 0.755
303.15 K, 101 kPa, x2 = 0.1043 | 0.7412
303.15 K, 101 kPa, x2 = 0.2011 | 0.6892
303.15 K, 101 kPa, x2 = 0.251 | 0.658
303.15 K, 101 kPa, x2 = 0.3015 | 0.6418
303.15 K, 101 kPa, x2 = 0.4038 | 0.6099
303.15 K, 101 kPa, x2 = 0.418 | 0.594
303.15 K, 101 kPa, x2 = 0.5005 | 0.5913
303.15 K, 101 kPa, x2 = 0.582 | 0.566
303.15 K, 101 kPa, x2 = 0.6032 | 0.5734
303.15 K, 101 kPa, x2 = 0.7006 | 0.5632
303.15 K, 101 kPa, x2 = 0.736 | 0.55
303.15 K, 101 kPa, x2 = 0.7996 | 0.5634
303.15 K, 101 kPa, x2 = 0.891 | 0.555
303.15 K, 101 kPa, x2 = 0.9011 | 0.5689
303.45 K, 101.33 kPa, x1 = 0.7 | 0.6645
303.55 K, 101.33 kPa, x1 = 0.5 | 0.6035
303.65 K, 101.33 kPa, x1 = 0.4 | 0.5874
303.75 K, 101.33 kPa, x1 = 0.3 | 0.5794
304.25 K, 101.33 kPa, x1 = 0.85 | 0.7288
304.55 K, 101.33 kPa, x1 = 0.6 | 0.6189
306.35 K, 101.33 kPa, x1 = 0.2 | 0.5538
308.15 K, 101 kPa, x2 = 0.1043 | 0.6842
308.15 K, 101 kPa, x2 = 0.2011 | 0.6409
308.15 K, 101 kPa, x2 = 0.3015 | 0.5971
308.15 K, 101 kPa, x2 = 0.4038 | 0.5697
308.15 K, 101 kPa, x2 = 0.5005 | 0.5535
308.15 K, 101 kPa, x2 = 0.6032 | 0.537
308.15 K, 101 kPa, x2 = 0.7006 | 0.5274
308.15 K, 101 kPa, x2 = 0.7996 | 0.5266
308.15 K, 101 kPa, x2 = 0.9011 | 0.5325
312.15 K, 101.33 kPa, x1 = 0.1 | 0.5154
312.65 K, 101.33 kPa, x1 = 0.4 | 0.5272
312.65 K, 101.33 kPa, x1 = 0.5 | 0.5397
312.75 K, 101.33 kPa, x1 = 0.3 | 0.5184
312.85 K, 101.33 kPa, x1 = 0.6 | 0.5535
313.15 K, 101 kPa, x2 = 0.094 | 0.651
313.15 K, 101 kPa, x2 = 0.1043 | 0.6342
313.15 K, 101 kPa, x2 = 0.2011 | 0.5944
313.15 K, 101 kPa, x2 = 0.251 | 0.574
313.15 K, 101 kPa, x2 = 0.3015 | 0.5574
313.15 K, 101 kPa, x2 = 0.4038 | 0.5315
313.15 K, 101 kPa, x2 = 0.418 | 0.53
313.15 K, 101 kPa, x2 = 0.5005 | 0.5172
313.15 K, 101 kPa, x2 = 0.582 | 0.499
313.15 K, 101 kPa, x2 = 0.6032 | 0.5037
313.15 K, 101 kPa, x2 = 0.7006 | 0.494
313.15 K, 101 kPa, x2 = 0.736 | 0.489
313.15 K, 101 kPa, x2 = 0.7996 | 0.4952
313.15 K, 101 kPa, x2 = 0.891 | 0.49
313.15 K, 101 kPa, x2 = 0.9011 | 0.4973
313.25 K, 101.33 kPa, x1 = 0.2 | 0.5122
314.15 K, 101.33 kPa, x1 = 0.85 | 0.6325
315.75 K, 101.33 kPa, x1 = 0.7 | 0.5676
322.55 K, 101.33 kPa, x1 = 0.6 | 0.5006
322.85 K, 101.33 kPa, x1 = 0.85 | 0.567
322.95 K, 101.33 kPa, x1 = 0.1 | 0.4571
322.95 K, 101.33 kPa, x1 = 0.4 | 0.4739
323.15 K, 100 kPa, x2 = 0.2504 | 0.5258
323.15 K, 100 kPa, x2 = 0.4997 | 0.4555
323.15 K, 100 kPa, x2 = 0.7497 | 0.4303
323.15 K, 101 kPa, x2 = 0.094 | 0.567
323.15 K, 101 kPa, x2 = 0.251 | 0.506
323.15 K, 101 kPa, x2 = 0.418 | 0.471
323.15 K, 101 kPa, x2 = 0.582 | 0.445
323.15 K, 101 kPa, x2 = 0.736 | 0.442
323.15 K, 101 kPa, x2 = 0.891 | 0.438
